Columns and labels:
Format in all cases: in vivo, C57BL/6N mice
myocardial BCAA content = test: LC-MS/MS of BCAA and leucine metabolites in heart extracts of TAC mice
Method: (§1) Twelve weeks C57BL/6N old mice were anesthetised with ketamine/xylazine (100 mg/kg and 10 mg/kg, respectively) and mechanically ventilated (SAR-830/AP, CWE). The transverse aortic arch was ligated by tying a 6-0 silk suture around the aorta and a 27G needle to yield a partial and reproducible constriction when the needle was removed. In sham animals, the aortic arch was visualized but not banded. Thorax was closed and analgesia was administrated (buprenorphine at 0.1 mg/kg every 12 hours until 48 hours). Mice were euthanized by lethal intraperitoneal dose of sodium pentobarbital (100 mg/kg) (Cat. No. 4579, Tocris).
(§2) The LAT1 inhibitor JPH203 (Cat. No. S8667) was intraperitoneally (ip) and chronically administered, starting the following day after TAC surgery.
(§3) Mice were randomly distributed to receive JPH203 at 12.5 mg/kg/day (prepared at 2 mg/ml of 40% 2-hydroxipropil-beta-cyclodextrin in saline). Sham and control groups received JPH203 vehicle (40% 2-hydroxipropil-beta-cyclodextrin in saline). Mice were euthanized 2 or 5 weeks after surgery.
After 5 hours of fasting, mice were injected with an intraperitoneal dose of L-Leucine-^13C6, ^15N (Cat. No. 608068, Sigma-Aldrich) at 0.1 mg/g 30 minutes before euthanizing with a lethal injection of sodium pentobarbital resuspended in saline and injected at 100 mg/kg (Cat. No. 4579, Tocris).
The levels of Branched-Chain Amino Acids (BCAA) and their main metabolites in biological samples will be determined by Liquid Chromatography tandem Mass Spectrometry (LC-MS/MS). Briefly, the determination of amino acids (BCAA but also amino acids involved in glutaminolysis) was performed by using a hydrophilic interaction chromatography (HILIC) with an amide column. After addition of the adequate internal standard (containing labelled analogues), protein precipitation with organic solvents and centrifugation, the supernatant was injected into the LC-MS/MS system operating in a Selected Reaction Monitoring (SRM) method by acquiring two transitions for each compound. The determination of α-ketoacids, α-hydroxy acids and SCFA (including the main BCAA metabolites and other compounds related with glutaminolysis) was performed by oBHA derivatization. The internal standard (containing labelled analogues) was added into the sample and the mixture was derivatized by adding a derivatizing mixture consisting in oBHA:EDC (1:1) in pyridine. After reaction for 1 h at room temperature, 1 mL of milliQ water and 4 mL of ethyl acetate was added to perform a liquid-liquid extraction. […] Quantification was performed by means of external calibration using authentic referent material. […] Several quality control samples (QCs) were analysed with every analytical batch with the aim of checking the inter-batch robustness of the results. […]

[1] = test system: genes involved in BCAA catabolism; test: BCAA catabolism gene expression (microarray, RT-PCR) in hearts of TAC mice; settings: 12.5 mg/kg/day ip
Method: as §1, §2, §3
Total RNA was extracted from heart samples using the NZY Total RNA Isolation kit (Cat. No. MB13402, NZY Tech) following the manufacturer's protocol.
RNA was reverse transcribed into cDNA using a High-Capacity cDNA Reverse Transcription kit (Cat. No. 4368814, Applied Biosystems) following manufacturer's instructions. The thermal cycler (Bio-Rad) was programmed to run a single cycle of 25 °C for 10 min, 37 °C for 120 min, 85 °C for 5 min and kept at 4 °C until use.
For determination of differential gene expression, RNA was isolated, as previously described, from mice myocardial samples and its quality was analysed by capillary electrophoresis (Bioanalyzer 2100, Agilent) and amplified using the WT Plus Reagent Kit-HT (Applied Biosystems, Thermo Fisher Scientific). Microarray service was done by the Molecular Diagnosis and Genomic platforms of the High Technology Unit (VHIR) using Clariom S type arrays specific for mouse transcriptome (plate format) (Applied Biosystems). […]

[2] = test system: heart failure induced by aortic stenosis; test: Ventricular dilatation, cardiac function (echocardiography) and pulmonary oedema in TAC mouse model; settings: after 5 weeks of TAC surgery, 12.5 mg/kg/day ip, vs control group
Method: as §1, §2, §3
(§4) Mice underwent transthoracic echocardiography at baseline (before surgery) and at 1, 2 and 5 weeks after surgery. Echocardiography was performed using a Prospect T1 Preclinical High Frequency Ultrasound System with a PB406e Probe 40MHz transducer (S-Sharp) applied to the shaved chest wall of mice anesthetized with isoflurane. The ejection fraction (EF), the left ventricular end-systolic (LVESd) and diastolic (LVEDd) internal diameters, left ventricular anterior wall (LVAW) thickness and left ventricular posterior wall (LVPW) thickness were measured in M-mode recordings.

heart hypertrophy = test: Cardiac hypertrophy in Transverse Aortic Constriction (TAC) mouse model; settings: 12.5 mg/kg/day ip, vs control group
Method: as §1, §2, §3, §4
Hypertrophy was calculated as heart weight-to-tibia length ratio. Echocardiographic parameters like IVS and LVPW thicknesses, as well as BNP and Myh7 mRNA levels, are the common parameters used to define myocardial hypertrophy.

interstitial collagen = test: Cardiac fibrosis in Transverse Aortic Constriction (TAC) mouse model; settings: 12.5 mg/kg/day ip
Method: as §1, §2, §3
Hearts were fixed in buffered 4% paraformaldehyde and embedded in paraffin for histological evaluation. The amount of interstitial collagen deposition was determined in 4 µm transverse sections at the papillary muscles level stained with Picrosirius red (Sigma-Aldrich). At least ten random photomicrographs per animal were taken with the Leica DM IRBE Inverted Fluorescence Microscope at x200 magnification. The analysis was performed using Image J 1.50 Software. Interstitial fibrosis was expressed as the percentage of fibrotic area with respect to total area under quantification, perivascular fibrosis was manually excluded from the analysis.

[3] = 13C,15N-leucine ip 30 minutes before heart extraction, 2 weeks of TAC, 12.5 mg/kg/day ip

SMILES: Nc1cc(COc2c(Cl)cc(C[C@H](N)C(=O)O)cc2Cl)c2oc(-c3ccccc3)nc2c1 [JPH203, O-[(5-amino-2-phenyl-1,3-benzoxazol-7-yl)methyl]-3,5-dichloro-L-tyrosine]
- increase in the ratio between the plasma and myocardial content of 13C6,15N-leucine (leucine uptake) (myocardial BCAA content; [3]): prevented these alterations
- reduction in the levels of the 13C6,15N-leucine metabolite 13C-HMG (myocardial BCAA content; [3]): prevented these alterations
- reduction in the levels of the 13C6,15N-leucine metabolite 13C-isovaleric acid (myocardial BCAA content; [3]): prevented these alterations
- increase in the myocardial content of BCAA (valine, leucine and isoleucine) (myocardial BCAA content; LC-MS/MS, heart extracts after 2 weeks of TAC surgery, chronic administration 12.5 mg/kg/day ip): significantly attenuated
- reduction in the expression of PP1MK ([1]; RT-PCR, hearts, vs control hearts, P=0.013): significantly attenuated
- reduction in the expression of BCKDHB ([1]; RT-PCR, hearts, vs control hearts, P=0.015): significantly attenuated
- downregulation of genes involved in BCAA catabolism induced by TAC surgery ([1]; microarray, myocardial samples, JPH203 treated vs sham mice): attenuates the downregulation
- attenuation of the development of pulmonary oedema (water content in lungs) ([2]; P<0.001): 56%
- attenuation of cardiac dysfunction (reduction in ejection fraction) ([2]; P=0.030): 38%
- reduction of the diastolic volume (LVEDV) ([2]; echocardiography, P=0.017): 60%
- reduction of the systolic volume (LVESV) ([2]; echocardiography, P=0.021): 51%
- attenuation of the increase in HW/TL ratio (heart hypertrophy; 5 weeks of aortic stenosis, P<0.001): 33%
- attenuation of the increase in MyH7/MyH6 ratio (heart hypertrophy; RT-PCR, P<0.001): 44%
- attenuation of the increase in BNP expression (heart hypertrophy; RT-PCR, P=0.001): 65%
- reduction of posterior wall thickness (heart hypertrophy; echocardiography, diastole, P=0.006): 28%
- reduction of anterior wall thickness (heart hypertrophy; echocardiography, diastole, P=0.026): 30%
- reduced interstitial collagen deposition (interstitial collagen; Picrosirius Red stained heart sections, P<0.001): 57%
- attenuation in the expression of collagen III (interstitial collagen; RT-PCR, myocardial homogenates after two weeks of TAC surgery, P=0.002): 58%
- attenuation in the expression of collagen I (interstitial collagen; RT-PCR, myocardial homogenates after two weeks of TAC surgery, P=0.003): 56%
